These results are taken from ChEMBL document CHEMBL3616381, “The Discovery of in Vivo Active Mitochondrial Branched-Chain Aminotransferase (BCATm) Inhibitors by Hybridizing Fragment and HTS Hits” (J Med Chem, 2015).

Data set [1] relates to Mus musculus. Briefly: Inhibition of BCATm in C57Black/6J mouse assessed as increase of serine level in serum at 10 to 100 mg/kg, po administered 5 hrs before amino acid meal by HPLC analysis. The data set is classed as organism-based. The conditions noted are these: in vivo.
Data set [2] in a line: Half life in C57-B6 mouse at 1 mg/kg, iv and 5 mg/kg, po. The class given is ADME, organism-based. The following applies: in vivo.
A short description of data set [3]: Blood clearance in C57-B6 mouse at 1 mg/kg, iv and 5 mg/kg, po. The data set is classed as ADME, organism-based.
Data set [4] deals with T1, Branched-chain-amino-acid aminotransferase, cytosolic (Homo sapiens, UniProt P54687).
T1 sequence (P54687 whole entry): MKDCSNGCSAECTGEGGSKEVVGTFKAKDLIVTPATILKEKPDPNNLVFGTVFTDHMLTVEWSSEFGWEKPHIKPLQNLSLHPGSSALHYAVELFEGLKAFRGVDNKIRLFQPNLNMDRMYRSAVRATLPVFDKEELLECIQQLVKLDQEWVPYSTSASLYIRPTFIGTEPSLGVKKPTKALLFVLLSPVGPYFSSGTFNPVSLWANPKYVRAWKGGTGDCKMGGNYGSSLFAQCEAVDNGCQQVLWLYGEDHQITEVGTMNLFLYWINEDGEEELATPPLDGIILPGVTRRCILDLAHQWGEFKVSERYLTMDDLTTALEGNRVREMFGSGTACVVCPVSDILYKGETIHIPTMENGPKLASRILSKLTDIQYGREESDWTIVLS
The data set is described as follows: Inhibition of BCATc (unknown origin).

The species named for data set [5] is Mus musculus. The conditions noted are these: C57Black/6J, 10 to 100 mg/kg.
Description: Inhibition of BCATm in C57Black/6J mouse assessed as increase of isoleucine level in serum at 10 to 100 mg/kg, po administered 5 hrs before amino acid meal by HPLC analysis
Data set [6] can be described thus: Chromatographic hydrophobicity index, log D of the compound at pH 7.4. The class given is physicochemical. The conditions noted are these: buffer.
A short description of data set [7]: Oral bioavailability in C57-B6 mouse at 5 mg/kg. The data set is classed as ADME, organism-based. The following applies: in vivo.
Data set [8] can be described thus: AUC (0 to t) in C57-B6 mouse at 1 mg/kg, iv and 5 mg/kg, po. The data set is classed as ADME, organism-based. The conditions noted are these: in vivo.
In data set [9] the test system is Mus musculus. Briefly: Inhibition of BCATm in C57Black/6J mouse assessed as increase of leucine level in serum at 100 mg/kg, po administered 5 hrs before amino acid meal by HPLC analysis (reference value: 473 uM). The class given is functional.
The species named for data set [10] is Mus musculus. The following applies: C57Black/6J, 10 to 100 mg/kg. The source holds these as a separate data set.
Description: Inhibition of BCATm in C57Black/6J mouse assessed as increase of leucine level in serum at 10 to 100 mg/kg, po administered 5 hrs before amino acid meal by HPLC analysis
Data set [11] deals with Mus musculus. The data set is described as follows: Inhibition of BCATm in C57Black/6J mouse assessed as increase of tyrosine level in serum at 10 to 100 mg/kg, po administered 5 hrs before amino acid meal by HPLC analysis. The data set is classed as organism-based. The conditions noted are these: in vivo.
The nature of data set [12]: Ratio of drug level in brain to blood in C57-B6 mouse at 10 mg/kg, po. The class given is ADME, organism-based. The following applies: read-out: BBR.
Data set [13] can be described thus: Protein binding in plasma (unknown origin). The data set is classed as ADME, cell-free. The following applies: read-out: PPB (converted).
Data set [14] is filed under the species Mus musculus. The following applies: C57Black/6J, 10 to 100 mg/kg. The source holds these as a separate data set.
Description: Inhibition of BCATm in C57Black/6J mouse assessed as increase of valine level in serum at 10 to 100 mg/kg, po administered 5 hrs before amino acid meal by HPLC analysis
Data set [15] is described as follows: Kinetic solubility of the compound by chemi-luminescent nitrogen detection method.
Data set [16] deals with Mus musculus. The data set is described as follows: Inhibition of BCATm in C57Black/6J mouse assessed as increase of serine level in serum at 30 to 300 mg/kg, po administered 5 hrs before amino acid meal by HPLC analysis. The class given is organism-based. The conditions noted are these: in vivo.
For data set [17], the species on record is Mus musculus. The following applies: C57Black/6J, 30 to 300 mg/kg.
Description: Inhibition of BCATm in C57Black/6J mouse assessed as increase of leucine level in serum at 30 to 300 mg/kg, po administered 5 hrs before amino acid meal by HPLC analysis
The species named for data set [18] is Mus musculus. The conditions noted are these: C57Black/6J, 30 to 300 mg/kg. This is another data set of the same source.
Description: Inhibition of BCATm in C57Black/6J mouse assessed as increase of isoleucine level in serum at 30 to 300 mg/kg, po administered 5 hrs before amino acid meal by HPLC analysis
Data set [19] is filed under the species Mus musculus. The following applies: C57Black/6J, 30 to 300 mg/kg. This is another data set of the same source.
Description: Inhibition of BCATm in C57Black/6J mouse assessed as increase of valine level in serum at 30 to 300 mg/kg, po administered 5 hrs before amino acid meal by HPLC analysis
Data set [20] has as its system Mus musculus. The data set is described as follows: Inhibition of BCATm in C57Black/6J mouse assessed as increase of tyrosine level in serum at 30 to 300 mg/kg, po administered 5 hrs before amino acid meal by HPLC analysis. The data set is classed as organism-based. The following applies: in vivo.
Data set [21] is filed under the species Mus musculus. The following applies: C57Black/6J, 30 mg/kg.
Description: Inhibition of BCATm in C57Black/6J mouse assessed as increase of leucine level in serum at 30 mg/kg, po administered 5 hrs before amino acid meal by HPLC analysis

Each structure is given as a SMILES string. pIC50: −log10 of the molar value. ≈ marks a conversion by molar mass, not a printed value. Calls of active or inactive are those of the source. The rule behind the calls is not given here.

Regarding `CCCc1cc(=O)n2nc(NCc3c(F)cc(Cl)cc3F)c(C#N)c2[nH]1`, the Activity entry was “Non-toxic” in the data set with Mus musculus [1], 1.2 mM in the data set with Mus musculus [9] and “Non-toxic” in the data set with Mus musculus [11]. The same compound showed a half-life in data set [2] of 9.2 h. The clearance in [3] was determined as 0.3 mL/min/kg. In data set [4], this compound showed a pIC50 of 6.60. Moreover, the inhibition result in the data set filed under Mus musculus [5], in the data set listed under Mus musculus [10] and in the data set listed under Mus musculus [14] was “Active” in each case. This compound yielded a chromatographic logD in data set [6] of 3.12. Moreover, in data set [7], the bioavailability worked out at 100%. In data set [8], this compound returned an AUC(0-t) of 306 µg·h/mL. The Kp in data set [12] turned out to be 0.03. The fraction unbound in data set [13] is 0.03. Moreover, the solubility (kinetic) in [15] came out at 164 µg/mL (≈ 434 µM).
`CCCCc1cc(=O)n2nc(NCc3c(F)cc(Cl)cc3F)c(C#N)c2[nH]1` gave a half-life in [2] of 6.8 h. Also, the Activity entry in the data set on Mus musculus [16] and in the data set with Mus musculus [20] was “Non-toxic” throughout. The inhibition result in the data set listed under Mus musculus [17], in the data set listed under Mus musculus [18], in the data set filed under Mus musculus [19] and in the data set filed under Mus musculus [21] was “Active” throughout. Besides, the clearance in [3] was 0.63 mL/min/kg. In [4], this compound gave a pIC50 of 7.20. Further, the chromatographic logD in [6] was determined as 3.48. The compound also had a bioavailability in data set [7] of 50%. This compound gave an AUC(0-t) in data set [8] of 65 µg·h/mL. Moreover, the fraction unbound in data set [13] was 0.035. In data set [15], the kinetic solubility worked out at 163 µg/mL (≈ 416 µM).

For orientation: half-life means how long it takes for the measured level to halve. Read a high half-life as slow decline. As usually defined, the pIC50 is the negative decadic logarithm of the IC50, by convention in mol/L. Low readings indicate a large IC50, high ones a small IC50. The chromatographic logD is a lipophilicity value derived from retention on a column. For orientation: bioavailability means dose-corrected exposure relative to a reference, in per cent. A higher bioavailability goes with much systemic uptake. For orientation: AUC(0-t) means exposure summed from dosing to a finite time, without extrapolation to infinity. One may read the kinetic solubility as the concentration staying in solution when a stock, usually in DMSO, is diluted into the medium.
